Columns and labels:
[1] = tested on: Ba/F3-Flt3-transfected cells in the presence of 10 ng/ml murine IL3; assay: Ba/F3-Flt3 (plus IL3) cellular proliferation counterscreen, Alamar Blue; format: cell-based; conditions: Mus musculus; plus 10 ng/ml murine IL3; read-out: BAF3-FLT3 (PLUS IL3) 384 well pIC50 (converted)
FGFR1 (h) = FGFR1 (h) (Homo sapiens, UniProt P11362); assay: FGFR1 (enzymatic assay), TR-FRET; format: biochemical; conditions: read-out: FGFR 1 pIC50 (converted)
Method: (§1) In a final reaction volume of 30 μL, FGFR1 (h) (25 ng/ml) was incubated with 50 mM HEPES pH 7.5, 6 mM MnCl2, 1 mM DTT, 0.1 mM Na3VO4, 0.01% Triton-X-100, 500 nM Btn-Flt3 and 5 μM ATP in the presence of compound (1% DMSO final). […] Time-Resolved Fluorescence Resonance Energy Transfer (TR-FRET) signal (ex340 nm. Em 620 nm, em 655 nm) was measured afterwards and results are expressed in RFU (Relative Fluorescence Units).

[2] = tested on: Ba/F3-FGFR3-transfected cells in the presence of 10 ng/ml murine IL3; assay: Ba/F3-FGFR3 (plus IL3) cellular proliferation counterscreen, Alamar Blue; format: cell-based; conditions: Mus musculus; plus 10 ng/ml murine IL3; 384 well; read-out: BAF3-FGFR 3 (PLUS IL3) 384 well pIC50 (converted)
Method: Ba/F3-FGFR3 (Minus IL3 or Plus IL3) (Cellular Proliferation Assay)
(§2) In a 384 well plate, 100 nl of compound dilution in DMSO was sprayed before adding 50 μl cell culture medium (phenol red free RPMI-1640, 10% FBS, 2 mM L-Glutamine and 50 μg/ml Gentamycin) containing 20000 cells per well of Ba/F3-FGFR3-transfected cells. Cells were put in an incubator at 37° C. and 5% CO2. After 24 hours, 10 μl of Alamar Blue solution (0.5 mM K3Fe(CN)6, 0.5 mM KaFe(CN)6, 0.15 mM Resazurin and 100 mM Phosphate Buffer) was added to the wells, incubated for 4 hours at 37° C. and 5% CO2 before RFU's (Relative Fluorescence Units) (ex. 540 nm., em. 590 nm.) were measured in a flurorescence plate reader.
As a counterscreen the same experiment was performed in the presence of 10 ng/ml murine IL3.
as §2, with “a 96” for “a 384”, “plate, 180” for “plate, 100 nl of compound dilution in DMSO was sprayed before adding 50”, “containing 10000” for “containing 20000”, “Ba/F3-FGFR3-transfected cells were pipette and 20 μl of compound dilution in DMSO was added.” for “Ba/F3-FGFR3-transfected cells.”, “hours, 40” for “hours, 10”

[3] = biological target: Ba/F3-FGFR1-transfected cells (Homo sapiens, UniProt P11362); assay: Ba/F3-FGFR1 (minus IL3) cellular proliferation assay, Alamar Blue; format: cell-based; conditions: minus IL3, 384 well
Summary of the method: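 24 h cmpd exposure, 37 °C/5% CO2; phenol red-free RPMI-1640, 10% FBS; 20000 cells/well (384) or 10000 cells/well (96); Alamar Blue (0.15 mM resazurin) 4 h; RFU ex 540/em 590.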

FGFR2 (h) = FGFR2 (h) (Homo sapiens, UniProt P21802); assay: FGFR2 (enzymatic assay), TR-FRET; format: biochemical; conditions: read-out: FGFR 2 pIC50 (converted)
Method: as §1, with “μL, FGFR2” for “μL, FGFR1”, “(h) (150” for “(h) (25”, “and 0.4” for “and 5”, “in” for “in RFU”

Ba/F3-FGFR1-transfected cells, sequence (P11362 whole entry, change not shown): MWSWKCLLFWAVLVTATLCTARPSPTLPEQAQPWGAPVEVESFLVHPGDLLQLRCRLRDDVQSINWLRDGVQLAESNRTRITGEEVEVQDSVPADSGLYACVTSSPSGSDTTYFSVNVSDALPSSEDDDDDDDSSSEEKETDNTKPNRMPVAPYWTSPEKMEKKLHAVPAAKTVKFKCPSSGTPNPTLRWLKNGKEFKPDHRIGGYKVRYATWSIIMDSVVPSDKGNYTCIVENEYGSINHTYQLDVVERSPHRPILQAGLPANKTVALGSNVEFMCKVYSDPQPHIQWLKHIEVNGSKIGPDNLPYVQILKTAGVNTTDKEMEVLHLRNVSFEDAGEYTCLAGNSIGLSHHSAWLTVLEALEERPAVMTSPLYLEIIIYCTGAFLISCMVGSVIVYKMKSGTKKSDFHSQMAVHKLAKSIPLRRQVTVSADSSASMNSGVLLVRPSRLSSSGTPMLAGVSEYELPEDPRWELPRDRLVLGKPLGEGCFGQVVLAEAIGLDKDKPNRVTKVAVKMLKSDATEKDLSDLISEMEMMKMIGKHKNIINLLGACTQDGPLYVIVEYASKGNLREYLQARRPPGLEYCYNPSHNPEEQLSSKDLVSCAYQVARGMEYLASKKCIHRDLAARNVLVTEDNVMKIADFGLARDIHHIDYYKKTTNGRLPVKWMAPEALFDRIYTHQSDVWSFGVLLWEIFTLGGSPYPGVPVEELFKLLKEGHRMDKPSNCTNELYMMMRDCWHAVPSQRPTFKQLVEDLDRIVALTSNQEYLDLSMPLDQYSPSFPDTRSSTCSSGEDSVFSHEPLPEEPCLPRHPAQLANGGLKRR
FGFR1 (h), sequence (P11362 22-822): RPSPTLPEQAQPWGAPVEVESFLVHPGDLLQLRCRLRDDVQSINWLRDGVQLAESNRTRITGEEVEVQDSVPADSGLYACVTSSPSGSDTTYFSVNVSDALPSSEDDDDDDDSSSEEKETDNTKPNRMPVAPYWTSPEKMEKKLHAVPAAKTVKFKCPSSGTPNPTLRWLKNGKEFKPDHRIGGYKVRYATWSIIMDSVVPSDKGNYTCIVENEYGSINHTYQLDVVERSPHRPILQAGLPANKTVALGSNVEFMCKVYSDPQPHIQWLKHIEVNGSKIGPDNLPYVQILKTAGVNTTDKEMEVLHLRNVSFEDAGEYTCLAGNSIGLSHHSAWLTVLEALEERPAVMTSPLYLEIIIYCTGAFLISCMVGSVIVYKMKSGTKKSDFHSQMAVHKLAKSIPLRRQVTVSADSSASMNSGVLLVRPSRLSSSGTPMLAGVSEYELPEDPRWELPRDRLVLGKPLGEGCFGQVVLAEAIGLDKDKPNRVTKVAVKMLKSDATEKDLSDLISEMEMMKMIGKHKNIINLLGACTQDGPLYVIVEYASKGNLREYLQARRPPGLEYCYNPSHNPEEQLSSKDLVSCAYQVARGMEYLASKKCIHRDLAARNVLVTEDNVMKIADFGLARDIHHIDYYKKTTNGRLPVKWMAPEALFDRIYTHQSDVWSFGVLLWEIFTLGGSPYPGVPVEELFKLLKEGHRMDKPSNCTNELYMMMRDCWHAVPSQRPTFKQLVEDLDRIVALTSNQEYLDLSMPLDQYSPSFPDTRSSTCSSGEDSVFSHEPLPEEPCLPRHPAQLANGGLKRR
FGFR2 (h), sequence (P21802 22-821): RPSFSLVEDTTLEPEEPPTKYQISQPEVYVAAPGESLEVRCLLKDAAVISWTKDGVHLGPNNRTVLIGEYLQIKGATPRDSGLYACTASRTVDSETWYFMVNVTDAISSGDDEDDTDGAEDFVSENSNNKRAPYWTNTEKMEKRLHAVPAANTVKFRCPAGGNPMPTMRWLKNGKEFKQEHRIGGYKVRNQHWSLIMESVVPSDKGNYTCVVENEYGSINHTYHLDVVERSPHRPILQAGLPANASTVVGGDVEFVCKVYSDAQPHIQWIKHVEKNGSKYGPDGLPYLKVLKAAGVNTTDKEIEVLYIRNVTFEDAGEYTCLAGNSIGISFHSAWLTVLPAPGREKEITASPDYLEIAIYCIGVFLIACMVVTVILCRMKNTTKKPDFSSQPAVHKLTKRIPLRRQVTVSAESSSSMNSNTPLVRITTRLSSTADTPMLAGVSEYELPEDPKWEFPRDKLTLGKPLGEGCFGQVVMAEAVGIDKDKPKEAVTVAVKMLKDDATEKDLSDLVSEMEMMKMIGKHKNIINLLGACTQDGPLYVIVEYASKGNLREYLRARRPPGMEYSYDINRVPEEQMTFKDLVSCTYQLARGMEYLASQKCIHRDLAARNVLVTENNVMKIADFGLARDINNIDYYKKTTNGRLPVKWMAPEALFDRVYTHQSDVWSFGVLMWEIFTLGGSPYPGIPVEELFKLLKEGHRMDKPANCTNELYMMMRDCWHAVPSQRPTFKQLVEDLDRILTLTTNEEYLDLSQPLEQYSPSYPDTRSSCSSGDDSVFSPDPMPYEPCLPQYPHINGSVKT

SMILES	IC50 [1]	IC50 (FGFR1 (h))	IC50 [2]	BAF3-FGFR 1 (MIN IL3) 384 well pIC50 [3]	IC50 (FGFR2 (h))
COc1cc(OC)cc(N(CCO)c2ccc3ncc(C4=CCN(C(=O)OC(C)(C)C)CC4)nc3c2)c1 [Compound 178]	> 10000 nM	5.13 nM	> 10000 nM	6.07	12.3 nM
COc1cc(OC)cc(N(CCNC(C)C)c2ccc3ncc(C(=O)N4CCN(C)CC4)nc3c2)c1 [Compound 179]	> 10000 nM	204 nM	> 10000 nM	5.62	427 nM
COc1cc(OC)cc(N(CCNC(C)C)c2ccc3ncc(C(=O)N4CCCCC4)nc3c2)c1 [Compound 180]	> 10000 nM	229 nM	> 10000 nM	5.51	302 nM
COc1cc(OC)cc(N(CCNC(C)C)c2ccc3ncc(C(=O)N4CCOCC4)nc3c2)c1 [Compound 181]	> 10000 nM	295 nM	> 10000 nM	5.44	490 nM
COc1cc(OC)cc(N(CCNC(C)C)c2ccc3ncc(C(=O)NCCCN4CCCCC4)nc3c2)c1 [Compound 182]	> 10000 nM	19.5 nM	~6920 nM	5.89	26.3 nM
COc1cc(OC)cc(N(CC#Cc2ncccc2OC)c2ccc3ncc(-c4cccnc4)nc3c2)c1 [Compound 183]	> 10000 nM	155 nM	> 10000 nM	6.76	81.3 nM
COc1cc(OC)cc(N(CCO)c2ccc3ncc(C(=O)Nc4cnn(C)c4)nc3c2)c1 [Compound 184]	> 10000 nM	141 nM	> 10000 nM	5.28	155 nM
COc1cc(OC)cc(N(CCO)c2ccc3ncc(C4CCN(C(=O)OC(C)(C)C)CC4)nc3c2)c1 [Compound 185]	> 10000 nM	316 nM	> 10000 nM	<5	214 nM
COc1cc(OC)cc(N(CCCO)c2ccc3ncc(-c4ccnc(C(=O)NCCOCCO)c4)nc3c2)c1 [Compound 186]	> 10000 nM	44.7 nM	> 10000 nM	5.98	36.3 nM

From US10052320B2, “Substituted quinoxalines as FGFR kinase inhibitors” (ASTEX THERAPEUTICS LIMITED, priority 2011, dated 2018)
